Reference: US20240325319A1, “INHIBITORS OF AMYLOID BETA OLIGOMERIZATION AND THERAPEUTIC USES THEREOF” (Northwestern University, priority 2021, published 2024)
Entries after “also recorded” stand apart in the source; their conditions may differ. Where a SMILES comes first, the peptide text is derived from it. The star is where a group is joined. Cbz = O=C(OCc1ccccc1)*

Assays:
AβOs bound to neurons = assay: AβOs bound to dendrites of hippocampal neurons treated with Aβ42 monomer (immunofluorescence, NU2/NU4); type: cell-based, rat; conditions: for influence of lysosome acidification inhibitor on the effect of NU-9: Bafilomycin A 100 nM, 30 min prior to 3 μM NU-9, then 500 nM Aβ monomer 30 min; for AβO accumulation under cathepsin L inhibition: 10 μM cathepsin L inhibitor 1 h, 500 nM Aβ 30 min
acidic lysosomes = assay: Lysotracker labelling of acidic compartments in hippocampal neurons; type: cell-based, rat; conditions: addition of control Bafilomycin A
Procedure: FIG. 24. Mature E18 hippocampal neurons were treated 3 μM NU-9, and subsequently labelled with lysotracker. A) total immunofluorescence (integrated density), B) mean intensity, C) average size of acidic compartments, D) number of acidic compartments.

cathepsin B = cathepsin B (Homo sapiens, UniProt P07858); assay: Purified cathepsin B enzyme activity (Z-RR-AMC to 7-AMC); type: biochemical; conditions: same concentration range (0.0003-30 μM)
Procedure: FIG. 28. A) 0.0003-30 μM NU-9 was combined with purified cathepsin B enzyme in the presence of the cathepsin B substrate Z-RR-AMC. Cathepsin B enzyme activity was measured by the rate of 7-AMC production by fluorescence. Percent change in rate with NU-9 was quantified in the graph. […] B) Mature hippocampal neurons were treated with NU-9 for 30 minutes, then Magic Red was used to monitor intracellular cathepsin L activity. Cells were treated in 3 wells.

cathepsin L = cathepsin L (Homo sapiens, UniProt P07711); assay: Purified cathepsin L enzyme activity (Z-FR-AMC to 7-AMC); type: biochemical; conditions: same concentration range (0.0003-150 μM)
Sequence of cathepsin L (P07711 114-333, species assumed): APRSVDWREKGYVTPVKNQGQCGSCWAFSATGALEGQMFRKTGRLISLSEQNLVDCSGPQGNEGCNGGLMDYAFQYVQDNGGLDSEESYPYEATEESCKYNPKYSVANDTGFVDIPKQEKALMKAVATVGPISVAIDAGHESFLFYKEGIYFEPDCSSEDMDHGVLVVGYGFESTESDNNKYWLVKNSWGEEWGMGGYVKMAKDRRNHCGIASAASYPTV
Procedure: FIG. 26. A) 0.0003-150 μM NU-9 was combined with purified cathepsin L enzyme in the presence of the cathepsin L substrate Z-FR-AMC. Cathepsin L enzyme activity was measured by the rate of 7-AMC production by fluorescence. Percent change in rate was quantified in the graph. […] B) Mature hippocampal neurons were treated with NU-9 for 30 minutes, then Magic Red was used to monitor intracellular cathepsin L activity. Cells were treated in 3 wells, and 9-22 images were analyzed per condition.
No effect of 0.0003-150 μM NU-9 was observed on the cathepsin L activity as measured by the production rate of 7-AMC from Z-FR-AMC by purified cathepsin L enzyme.

For CO/C1=C\C(C)=C\[C@@H](C)[C@@H](O)[C@@H](C)C/C(C)=C/C=C/[C@H](OC)[C@@H]([C@@H](C)[C@@H](O)[C@H](C)[C@@]2(O)C[C@@H](O)[C@H](C)[C@@H](C(C)C)O2)OC1=O [Bafilomycin A], the “neuron-binding AβOs with lysosome inhibitor in the absence of NU-9” value (AβOs bound to neurons; 100 nM bafilomycin A 30 min, Aβ monomer 500 nM 30 min, vs Aβ monomer alone) was “did not lead to the formation of significantly more neuron-binding AβOs”, the “influence of lysosome acidification inhibitor on the effect of NU-9” value (AβOs bound to neurons) was “prevents the effect of NU-9 on AβOs bound to synapses; also recorded: significantly prevented the effect of NU-9” and the “influence of lysosome acidification inhibitor on the effect of NU-9” value (AβOs bound to neurons; listed as Bafilomyicin A) was “prevented the effect of NU-9”. For the same compound, the “integrated fluorescent density of lysotracker, control” value (acidic lysosomes) was “significantly reduced”.
CCCNC(=O)[C@H]1O[C@@H]1C(=O)N[C@H](C(=O)N1CCC[C@H]1C(=O)O)[C@@H](C)CC [CA-074] was tested, and the “cathepsin B activity, standard inhibitor” value (cathepsin B) was “Clear inhibition of enzyme activity” and the “influence of cathepsin B inhibitor on the effect of NU-9” value (AβOs bound to neurons; 10 μM CA-074 24 h, 3 μM NU-9 30 min, 500 nM Aβ monomer 30 min) was “prevented the effect of NU-9”.
In the case of CC(C)C[C@H](NC(=O)[C@H]1O[C@@H]1C(=O)O)C(=O)NCCCCN=C(N)N [E64], the “number of bound AβOs, inhibitor alone” value (AβOs bound to neurons; E64 10 μM, 24 h, Aβ monomer 500 nM 30 min) is reported as “significantly reduced the number of bound AβOs” and the “influence of cysteine cathepsin inhibitor on the effect of NU-9” value (AβOs bound to neurons; E64 10 μM, 24 h, then NU-9 3 μM 30 min, Aβ monomer 500 nM 30 min) is reported as “did not significantly change the effectiveness of NU-9; also recorded: does not prevent the effect of NU-9”.
In the case of CC(C)C[C@@H](C=O)NC(=O)[C@H](CC(C)C)NC(=O)[C@H](CC(C)C)NC(=O)OCc1ccccc1 [MG132] (Cbz-Leu-Leu-Leu-aldehyde), the “formation of AβOs under proteasome inhibition” value (AβOs bound to neurons; 100 nM MG132 30-min pre-treatment, 500 nM Aβ42) is reported as “no effect on formation of AβOs” and the “influence of proteasome inhibition on reduction of AβO accumulation by NU-9” value (AβOs bound to neurons; 100 nM MG132 30 min, 3 μM NU-9 30 min, 500 nM Aβ42) is reported as “no effect on formation of AβOs or reduction of AβO accumulation by NU-9”.
In the case of O=C[C@H](Cc1ccc(O)cc1)NC(=O)[C@H](Cc1ccccc1)NC(=O)OCc1ccccc1 [Z-FY-CHO] (Cbz-Phe-Tyr-aldehyde), the “cathepsin L activity, standard inhibitor” value (cathepsin L) is reported as “reduced cathepsin L activity”, the “AβO accumulation under cathepsin L inhibition” value (AβOs bound to neurons) is reported as “mimicked the effect of NU-9” and the “AβO accumulation under cathepsin L inhibition” value (AβOs bound to neurons; listed as Cathepsin L inhibitor) is reported as “prevents AβO accumulation”.
With Ic1cccc(/C=N/Nc2nc(N3CCOCC3)nc(N(c3ccccc3)c3ccccc3)n2)c1 [vacuolin-1] the “influence of inhibition of lysosome maturation and exocytosis on NU-9” value (AβOs bound to neurons; 1 μM vacuolin-1 1 h pre-treatment, 3 μM NU-9 30 min, 500 nM Aβ42) was “prevented the effectiveness of NU-9”.
For MDL-28170, the “AβO accumulation under calpain inhibition” value (AβOs bound to neurons; 10 μM MDL-28170 30 min, 500 nM Aβ42 30 min) was “reducing AβO accumulation; also recorded: may mimic the effect of NU-9”.
